Data reported in US20260176328A1, “ANTIBODY COMPOSITIONS AND METHODS FOR DISRUPTING NONTUBERCULOUS MYCOBACTERIA BIOFILMS” (priority 2022, published 2026).

Assays:
Settings in all cases: 2 hr; for Percent killing of NRel: NRel induced with 5 μg HuTipMab
M. avium = experiment: Antibiotic mediated killing of planktonic and newly released (NRel) M. avium
Protocol: (§1) To determine relative susceptibility of planktonic NTM to amikacin, biofilms were prepared and gently washed twice with DPBS as described above, then treated with 200 μL of either: 7H9 (growth control); 7H9+0.5 μg amikacin/mL for M. abscessus 19977, +12 μg amikacin/mL for M. avium, +0.7 μg amikacin/mL for M. abscessus clinical isolate 1 or +lug amikacin/mL for M. abscessus clinical isolate 3. […] Treated biofilms were incubated statically at 37° C. in 5% CO2 and humidity for 2 hr, after which 150 μL was collected from each well and dispensed into 1.5 mL Eppendorf microcentrifuge tubes, then pulse-vortexed with two sterile 3 mm glass beads (Fisher Scientific International, Inc., Hampton, NH) to disrupt aggregates. Suspensions were gently sonicated for 2 min in a waterbath sonicator (Ultrasonic Bath 2.8 L, Fisher Scientific) to further disrupt any aggregates. After sonication, samples were diluted and plated on Middlebrook 7H10 agar and incubated at 37° C. with 5% CO2 in a humidified atmosphere to assess relative CFU.
(§2) To determine azithromycin-mediated killing, the same protocol as above was used with one adjustment. […] Wells were treated with 200 μL of either: 7H9 (growth control); 7H9+5 μg azithromycin/mL for M. abscessus 19977, +16 μg azithromycin/mL for M. avium, +10 μg azithromycin/mL for M. abscessus clinical isolate 1, or +8 μg azithromycin/mL for M. abscessus clinical isolate 3. […] Percent killing was then calculated as [growth control CFU/mL-NRel or planktonic CFU/mL]/[growth control CFU/mL].

[1] = tested on: M. abscessus clinical isolate 1; experiment: Antibiotic mediated killing of planktonic and NRel M. abscessus clinical isolate 1
Protocol: as §1, §2

[2] = tested on: M. abscessus clinical isolate 3; experiment: Antibiotic mediated killing of planktonic and NRel M. abscessus clinical isolate 3
Protocol: as §1, §2

M. abscessus 19977 = experiment: Antibiotic mediated killing of planktonic and newly released (NRel) M. abscessus 19977
Protocol: as §1, §2

| Structure (SMILES) | Percent killing of NRel (M. avium; 12 μg amikacin/mL (¼ MIC)) [%] | Percent killing of planktonic bacteria (M. avium; 12 μg amikacin/mL (¼ MIC)) [%] | Percent killing of NRel ([1]; 0.7 μg amikacin/mL) [%] | Percent killing of planktonic bacteria ([1]; 0.7 μg amikacin/mL) [%] | Percent killing of NRel ([2]; lug amikacin/mL) [%] | Percent killing of planktonic bacteria ([2]; lug amikacin/mL) [%] | Percent killing of NRel (M. abscessus 19977; 0.5 μg amikacin/mL (¼ MIC)) [%] | Percent killing of planktonic bacteria (M. abscessus 19977; 0.5 μg amikacin/mL (¼ MIC)) [%] | Percent killing of NRel (M. avium; 16 μg azithromycin/mL (½ MIC)) [%] | Percent killing of planktonic bacteria (M. avium; 16 μg azithromycin/mL (½ MIC)) [%] | Percent killing of NRel ([1]; 10 μg azithromycin/mL) [%] | Percent killing of planktonic bacteria ([1]; 10 μg azithromycin/mL) [%] | Percent killing of NRel ([2]; 8 μg azithromycin/mL) [%] | Percent killing of planktonic bacteria ([2]; 8 μg azithromycin/mL) [%] | Percent killing of NRel (M. abscessus 19977; 5 μg azithromycin/mL (½ MIC)) [%] | Percent killing of planktonic bacteria (M. abscessus 19977; 5 μg azithromycin/mL (½ MIC)) [%] |
| --- | --- | --- | --- | --- | --- | --- | --- | --- | --- | --- | --- | --- | --- | --- | --- | --- |
| NCC[C@H](O)C(=O)N[C@@H]1C[C@H](N)[C@@H](O[C@H]2O[C@H](CN)[C@@H](O)[C@H](O)[C@H]2O)[C@H](O)[C@H]1O[C@H]1O[C@H](CO)[C@@H](O)[C@H](N)[C@H]1O [amikacin, Amikacin] | 41 | 17 | 45 | 28 | 47 | 21 | 61 | 23 | – | – | – | – | – | – | – | – |
| CC[C@H]1OC(=O)[C@H](C)[C@@H](O[C@H]2C[C@@](C)(OC)[C@@H](O)[C@H](C)O2)[C@H](C)[C@@H](O[C@@H]2O[C@H](C)C[C@H](N(C)C)[C@H]2O)[C@](C)(O)C[C@@H](C)CN(C)[C@H](C)[C@@H](O)[C@]1(C)O [azithromycin, Azithromycin] | – | – | – | – | – | – | – | – | 36 | 19 | 47 | 28 | 45 | 25 | 42 | 20 |
